Key:
[1] = xn = mol fraction of the nth substance listed; conditions: 101 kPa, Liquid; for viscosity: Capillary tube (Ostwald / Ubbelohde) method; for mass density: Pycnometric method; for speed of sound: Resonance method
[2] = relative permittivity at various frequencies (dimensionless); xn = mol fraction of the nth substance listed; conditions: 101 kPa, Liquid, Frequency=3 MHz, AC method

COCCO [2-methoxyethan-1-ol] + C[N+](=O)[O-]
x2 = 0
Conditions | mass density, [1] [kg/m3] | relative permittivity, [2] | speed of sound, [1] [m/s] | viscosity, [1] [mPa·s]
293.15 K | 964.88 | 17.38 | 1359.3 | 1.708
298.15 K | 960.29 | 16.96 | 1342.1 | 1.544
303.15 K | 955.77 | 16.56 | 1325.1 | 1.404
308.15 K | 951.19 | 16.16 | 1313.5 | 1.246
313.15 K | 946.21 | 15.77 | 1296.8 | 1.098

C[N+](=O)[O-] [nitromethane] + CCCCOCCO
x1 = 1
Conditions | mass density, [1] [kg/m3] | relative permittivity, [2] | speed of sound, [1] [m/s] | viscosity, [1] [mPa·s]
293.15 K | 1137.63 | 37.31 | 1340.2 | 0.648
298.15 K | 1130.62 | 36.52 | 1320.4 | –
298.45 K | – | – | – | 0.619
303.15 K | 1123.6 | 35.66 | 1298.1 | 0.584
308.15 K | 1116.86 | 34.92 | 1281.2 | 0.563
313.15 K | 1109.87 | 34.09 | 1262.8 | 0.545
